According to a melting point compilation (Tetko et al.; mined from patent text by program, amines drawn as free bases though some values may be those of a salt):

melting point [°C] | SMILES
92 to 93 | CC1C(c2ccc(Cl)cc2)SC(=O)N1C(=O)NN1CCCCC1 (stereo not given)
134 | CCOC(=O)c1nn(-c2ccc(OC(F)F)cc2)c2cccc(Cl)c2c1=O
32 to 38 | O=C(CCCCCl)c1cccc2c1OCCO2
110 to 111 | CCOc1nn(CCc2ccc(OCc3nc(-c4ccccc4)oc3C)cc2)cc1CCC(=O)O
122 to 128 | CC(=O)Oc1cnccc1CCCOc1cccnc1Cc1cccc(Br)c1
132 to 133 | COc1ccc(-c2cc(COc3cccc4cc(NS(=O)(=O)C(F)(F)F)ccc34)ccc2F)cc1
143 to 145 | C[C@H]1[C@H](O)[C@H](O)C(S(=O)(=O)c2ccccc2)=C[C@H](C)[C@H]1O
123 to 124 | COc1ccc(CC(=O)NC(C)(C)C(O)c2ccccc2)cc1OC (stereo not given)
222 to 224 | NC(=O)C(=Cc1c[nH]c2ncccc12)c1ccccc1
125 to 127 | CCCCOc1ccc(C(C)NC(=O)NO)cc1 (stereo not given)
116 to 118 | CSCCC(=O)N(C)c1cnc(-c2cccnc2)s1
79 to 81 | Brc1cncc2cccnc12
97 to 98 | CN1CCCC(OC(=O)Nc2ccc(F)cc2)C1 (stereo not given)
108 to 109 | COCCNC(=S)n1nc(Oc2ncc(C(F)(F)F)cc2Cl)cc1C
187 | COC(=O)Cc1csc(NS(=O)(=O)c2cccc(Cl)c2C)n1
182 to 184 | COc1ccc2[nH]c(C)c(-c3nc(OC)cc(OC)n3)c2c1
217 to 219 | COC(=O)c1cc(NC=O)c2cc(Cc3ccc(F)cc3)cnc2c1O
136 to 137 | O=[N+]([O-])c1ccc(OCCN2CCC(Cc3ccccc3)CC2)cc1O
125 to 127 | O=C(O)CCC1CCC(=O)N1 (stereo not given)
165 to 166 | COc1cccc(C#Cc2nc(C)ccc2N)c1
171 to 173 | Cc1cc(O)c2c(c1C)C(=O)CC2
89 to 91 | COP(=O)(O)Cc1ccc(O)cc1
150 to 151 | COc1ccc(CCc2nnc(-c3ccc4nccn4c3)o2)cc1C(F)(F)F
66 to 68 | CCc1cc(Cl)n2nccc2n1
148 to 151 | CC(=O)NC[C@H]1CN(c2ccc(C3=CCN(C=O)CC3)c(F)c2)C(=O)O1

melting point [°C] | SMILES
> 150 | O=c1[nH]c(=O)n(C2C=CC(CBr)O2)cc1C=CBr (stereo not given)
110 to 112 | Cc1nc(-c2cccc(-c3nc4sccn4c3-c3ccnc(N[C@@H]4CCCN(C(=O)OC(C)(C)C)C4)n3)c2)no1
211 to 215 | COC(=O)Nc1cnc2ccc(Sc3ccccc3)cn12
194 to 195 | Cc1c(C)c2c(c(C)c1NC(=O)CC(C)(C)C)C(C)(c1ccc(C(C)C)cc1)CO2 (stereo not given)
191 to 193 | CNC(=O)c1cccc(F)c1Nc1nc(Nc2ccc3c(c2)CCCC(=O)N3CCOC)ncc1Br
115 to 117 | Cc1ccc(S(=O)(=O)OC[C@H]2COc3ccc4nc(C)ccc4c3O2)cc1
85 to 88 | CC(C(=O)O)c1ccc(CC(C)C(C)O)cc1 (stereo not given)
112 to 113 | CCSc1ccc(C(=O)O)nc1SCC
167 | O=C(NC(Cc1ccc(OCc2ccccc2)cc1)c1noc(=O)[nH]1)c1cn2cc(-c3ccc(Cl)cc3)ccc2n1 (stereo not given)
176 to 177 | Cc1ccc(C2COc3c(C)c(C)c(NC(=O)CC(C)(C)C)c(C)c32)cc1 (stereo not given)
110 | COc1ccc(Cl)c(Oc2c(C)nc(-c3ncccn3)nc2Cl)c1
102 to 103 | O=C(Nc1cccc(Br)c1)N(Cc1ccccc1)Cc1ccccc1
155 to 157 | O=C(O)c1ncc(OCc2ccccc2)c(OCc2ccccc2)c1Br
208 | CCOC(=O)C1=C(C)NC(N)=C(C(=O)OCC)C1c1ccccc1C#N (stereo not given)
97 to 97.5 | CCCCN1C2=NCCN2C(c2ccccc2)c2cc(Cl)ccc21 (stereo not given)
177 to 179 | O=C(O)c1ccc(OCc2ccccc2OCc2ccccc2)cc1
103 to 104 | FC(F)(F)c1cccc(-c2ccnc3ccnn23)c1
111 to 113 | CC(C)OC(=O)c1cc(-n2c(=O)c3c(n(C)c2=O)CCC3)c(F)cc1Cl
103 | O=C(NC(CCc1ccccc1)c1nnco1)c1ccc2[nH]c(-c3ccncc3)nc2c1 (stereo not given)
105 to 107 | O=C(OCc1ccccc1)c1ccc(OC(=O)c2cccc(C(=O)Oc3ccc(C(=O)OCc4ccccc4)cc3)c2)cc1
116 | O=C(Nc1ccccc1S(=O)(=O)c1ccccc1)N[C@@H](Cc1ccc(NCc2c(Cl)cccc2Cl)cc1)C(=O)O
193 to 194 | OCC(O)COc1cccc2cccnc12 (stereo not given)
215 to 216 | Cc1ccc2ccccc2c1Nc1ccccc1C(=O)O
185 | CS(=O)(=O)N1CCN(C(CC2Cc3cc(C(N)=O)ccc3O2)C(=O)NO)CC1 (stereo not given)
217 to 220 | CC(C)(C)c1cc(-c2ccc(NC(=O)[C@H]3CCCC[C@H]3C(=O)O)cc2)cc(C(C)(C)C)c1O (relative stereo)

Further lines, the compound ahead of its results:

SMILES | melting point [°C]
COc1ccc(CC(C)NCC(O)c2ccccc2OC)cc1OC (stereo not given) | 125 to 126
Cc1ccccc1C(=O)Oc1cc(O)ccn1 | 116 to 119
CCCCOC(=O)N(C)c1cccc(-c2ccnc3c(C#N)cnn23)c1 | 96 to 97
Oc1nc(S)nc2c(-c3ccccc3)cnn12 | 251
CC(C)(C)CC(C)(C)c1cc(-n2nc3ccc(S(=O)(=O)c4ccccc4)cc3n2)c(O)c(C(C)(C)c2ccccc2)c1 | 170 to 171
Cc1c(NC(=O)CC(C)(C)C)c(C)c2c(-c3ccc(C(C)C)cc3)coc2c1C | 229 to 230
CC12CCC3C(CC(O)C4(O)CC(O)CCC34C)C1CCC2=O (stereo not given) | 304 to 306
CC1=NN=C(c2ccc([N+](=O)[O-])cc2)c2ccc(Cl)cc2C1 | 227 to 228
Cc1ccccc1C(CCC(=O)O)Oc1cc(OCc2ccsc2)ccc1C(=O)NC(Cc1ccccc1)C(=O)O (stereo not given) | 178 to 180
O=C(O)CN=c1sc2ccccc2s1 | 195 to 200
CC(CO)(CO)NS(=O)(=O)c1cc(NC(=O)c2cnn3c(C(F)F)cc(-c4ccc(C(F)(F)F)cc4)nc23)c(Cl)s1 | 237
COc1ccc2c(c1)cc(C=O)n2C | 88 to 90
CCC(=O)c1c(C(C)C)nn2ccccc12 | 41 to 42
CC1(C)OC[C@@H]([C@@H]2CC(=O)N2)O1 | 91 to 92
CN(C)C1(c2ccc(C(C)(C)C)cc2)CCC(=O)CC1 | 82.5 to 87
CC(C)(C)OC(=O)COC1CCN(CC2CN(c3ccc(CN)cc3)C(=O)O2)CC1 (stereo not given) | 95 to 96
Nc1ccccc1SC(F)(F)F | 30 to 31
C[C@]12C=CC(=O)N[C@@H]1CCc1cc(-c3cccc([N+](=O)[O-])c3)ccc12 | 205 to 206
Nc1nc(C#Cc2ccccc2)cc(-c2ccccc2)n1 | 136 to 138
N#CCC(O)(c1ccc(Cl)cc1)c1ccc(-c2ccc(Cl)cc2)cc1 (stereo not given) | 123
CN1C(=O)[C@H](NC(=O)/C=C/c2ccc(C(F)(F)F)cc2)N=C(c2ccccc2)c2ccccc21 | 133 to 137
CCCCCCOc1ccc(O)c2cc(C)c(C)cc12 | 72 to 73
COc1cc2c(cc1Nc1ncc(Cl)c(Nc3ccccc3OCC#N)n1)CCN(CC(=O)N(C)C)CC2 | 77 to 93
O=c1[nH]c2ccc(CCN3CCN(c4cccc5ccccc45)CC3)cc2o1 | 282 to 285
Cc1ccc(S(=O)(=O)OC2=COC2)cc1 | 86 to 88

SMILES | melting point [°C]
Cc1ccc(S(=O)(=O)N2[C@@H](CCC(=N)NO)CC[C@H]2c2ccc(F)cc2)cc1 (racemic) | 134
CCS(=O)(=O)CCC(=O)NNC(=O)N1Cc2ccccc2Oc2ccc(C#N)cc21 | 188 to 190
COc1ccc(-c2sc3c(c2C)c(=O)c(COC(C)=O)cn3Cc2ccccc2OC)cc1 | 158 to 159
O=c1[nH]c2ccc(C3CCC(NCCS(=O)c4ccccc4)CC3)cc2o1 (stereo not given) | 107 to 110
COc1cccc([C@H]2O[C@H](CC(=O)Nc3ccc4oc(CCC(=O)O)cc4c3)C(=O)N(CC(C)(C)CO)c3ccc(Cl)cc32)c1OC | 207 to 209
COc1ccc(OCC(O)CN2CCN(C(N)=O)CC2)cc1 (stereo not given) | 192 to 195
O=C1CC(c2ccccc2)Cc2c1ccn2C(=O)c1ccccc1 (stereo not given) | 140 to 142
COc1ccc(C(=O)Cc2ccccc2)c([N+](=O)[O-])c1O | 176 to 177
O=c1[nH]c2ncc(-c3ccc(O)cc3)nc2n1CC1CCCCC1 | 302 to 303
COc1cc(OC)nc(Oc2cccc3c2C(=O)OC3C#N)n1 (stereo not given) | 157 to 159
O=C(Nc1ccccn1)c1nc2ccccc2[nH]1 | 206
O=C(CCNC(=O)NOCCCl)NCC1CC1 | 105 to 106
CC(C)(C(=O)O)C(=O)NCc1cn(C(c2ccccc2)(c2ccccc2)c2ccccc2)cn1 | 174 to 175
CCCc1ccc(-c2nc(-c3ccccc3Cl)nn2C)c(Cl)c1 | 70 to 72
O=C(NC1Cc2cccc(-c3ccc(F)cc3)c2C1)c1ccc(F)cc1 (stereo not given) | 157
CC1(COc2ccc(S(=O)(=O)C3SC(=O)NC3=O)cc2)CCCCC1 (stereo not given) | 174 to 175
CCCn1c(=O)c2c(N)n[nH]c2n(Cc2ccccc2)c1=O | 214 to 215
O=C(N=C1SCCN1Cc1ccc(Cl)nc1)C(F)(F)F | 96
CCCCCCCCCCCCCCCCNc1ccc(C(=O)OCC(CO)OC(C)=O)cc1 (stereo not given) | 67
COc1cc(N)c(Cl)cc1C(=O)NCC12CCCN(CC1)C2 (stereo not given) | 185 to 187
S=c1sc2ccccc2n1CNc1ccccc1 | 102 to 103
CCCOc1ccc(S(=O)(=O)CCC)cc1C(N)=O | 168 to 170
CC[C@@H](c1ccccc1)N(Cc1ccc(C(=O)N2CCC[C@@H]2CO)cc1)S(=O)(=O)c1ccc(Cl)cc1 | 120 to 121
NCCCN1CCN(C(c2ccccc2)c2ccccc2)CC1 | 62 to 63
CCN1c2ncc(CCc3ccncc3)cc2C(=O)N(C)c2ccc(C#N)nc21 | 149 to 150
